Molecules are shown by their SMILES. “Also recorded” adds a separate entry of the source. Where two headings read alike, the source gives them in different places.

The test system of one data set is melanoma. Put plainly: Organ activities in melanoma-bearing nude mice. From the text:
A prognosis as to the tumor/background ratio in a tumor image can be made by means of the tumor/blood radioactivity ratio of a tracer in a tumor model.

For data set [1] the following is noted: quenched product.
For data set [2], the system named is non-parvicellular lung tumor. Put plainly: Organ activities in lung tumor-bearing nude mice. The note with it: about 0.5 MBq non-quenched tracer i.v.
In a further data set the test system is B cell lymphoma. To be noted: 0.1 MBq, B cell lymphoma mouse model; cited from earlier work.
The subject of another data set is fibrosarcoma. The note with it: about 2.5 MBq, fibrosarcoma mouse model; cited from earlier work.
The conditions of data set [3]: Wagner et al., Cancer Research 2003; cited from earlier work.
[4] abbreviates: about 0.5 MBq quenched tracer i.v., after 60 min.

For `[N-]=[N+]=N[C@H]1C[C@H](n2cc(C([18F])[18F])c(=O)[nH]c2=O)O[C@@H]1CO` [α,α-^18F2-AZT, 5,5-^18F-difluoro-3′-deoxy-3′-azidothymidine], in the data set on melanoma (setting [4]), the tumor/blood radioactivity ratio is on record as 3.2 and the tumor/organ radioactivity ratios result is on record as “high”. In addition, the “storage of 18F in bone” value with melanoma (about 0.5 MBq quenched tracer i.v., compared with non-quenched product) was “lower”. Besides, in the data set with melanoma (melanoma mouse model), the “PET imaging of tumor” value was “allows PET imaging of melanoma in a mouse model”. Also, the “passage of the blood-brain barrier” value with melanoma (mouse animal experiments) is “passes the blood-brain barrier; also recorded: capable of passing the blood-brain barrier”. The storage in tumor result in the data set with melanoma (mouse model, lung tumor and melanoma (summary)) was “stored in lung tumor and in melanoma”. Also, the “increase of the fluoride concentration” value (isotonic NaCl solution at 21° C., over 4 hours, quenched with triethylamine) is given as “scarcely any increase”. Moreover, where the note is “isotonic NaCl solution, room temperature, before quenching step”, the “stability in isotonic NaCl solution” value is recorded as “stable”. Moreover, the “increase of the F ion concentration” value (isotonic NaCl solution, room temperature, within 1 hour, before quenching step) fell in the range of 3 to 4.5%. Moreover, the stability in serum entry in data set [1] (serum at room temperature (21° C.)) was “A similar result”. In addition, the stability in serum result in data set [1] (serum in an incubator at 37° C.) is on record as “markedly improved stability”. Besides, in data set [2] (30 and 60 min), the “absorption of 18F in bone tissue” value was “particularly high”. The “storage of activity in organs” value in data set [2] (organ activities after 30 min and 60 min) is “activity was stored in the tumor, in the spleen and in the colon”.
As to `Cc1cn([C@H]2C[C@H]([18F])[C@@H](CO)O2)c(=O)[nH]c1=O` [^18F-FLT, 3′-^18F-fluoro-3′-deoxythymidine], the results for the tumor/blood radioactivity ratio entry in the data set on B cell lymphoma and in the data set with fibrosarcoma were “about 7” and 1.8, respectively. In data set [3], the “storage in the spleen of mice” value is on record as “Marked storage”.

The record behind these values is US20080292550A1, “Fluorinated 3'-Deoxythymidine Derivatives, a Method for Their Preparation and Their Use” (MAX-DELBRUECK-CENTRUM FUER MOLEKULARE MEDIZIN, priority 2005, published 2008).
